The values below come from patent US4159328A, “Tetrahydro-1,3,5-thiadiazin-4-one derivative” (Nihon Nohyaku Co., Ltd., priority 1977, dated 1979).

Usually mortality stands for the percentage killed.

Type in all cases: in vivo
For data set [1], the system named is larvae of brown planthopper (Nilaparvata lugens Stahl). Description: Test Example 1: insecticidal activity against larvae of brown planthopper. As to conditions: 168 h, third-instar larvae, 25° C., 7 days after treatment. A digest of the protocol:
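Rice seedlings at 1.5-leaf stage were dipped for 30 s in a 400 ppm test composition, air-dried, and infested with third-instar N. lugens larvae. After holding at 25 °C, mortality was scored 5 or 7 days post-treatment from three replicates.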

Data set [2] deals with larvae of white-backed planthopper (Sogatella furcifera Horvath). Description: Test Example 2: insecticidal activity against larvae of white-backed planthopper. The following applies: 168 h, 400 ppm, first-instar larvae, 25° C., seven days after treatment, read-out: Mortality. The method, then: Insecticidal activity against larvae of white-backed planthopper (Sogatella furcifera Horvath).
Testing method: Five rice seedlings of the 1.5 leaf age were dipped in a test composition of 400 ppm concentration for 30 seconds. After air-drying, the seedlings were placed in a glass tube containing 1 ml of water and infested with five first-instar larvae of white-backed planthopper. The glass tube was left standing in a constant temperature cabinet at 25° C. and seven days after the treatment, dead-and-survival was observed. Mortality was calculated from the results of 3-replication test.

The subject of data set [3] is two-spotted spider mite (Tetranychus urticae Koch). Put plainly: Test Example 3: activity to two-spotted spider mite. The following applies: 48 h, 1,000 ppm, 2 days after treatment. From the text:
Activity to two-spotted spider mite (Tetranychus urticae Koch).
Testing method: Two-spotted spider mites were set free on the pot-planted soybean in a greenhouse. On the next day, a test composition of 1,000 ppm concentration was sprayed over the soybean by means of a spray gun. Two days or five days after the treatment, dead-and-survival was inspected to calculate the mortality.

The test system of data set [4] is cirrus red mite (Panonychus citri McGregor). Put plainly: Test Example 4: activity to citrus red mite (Rothamstead method). More on the design: concentration or dose not given beside the values. As to conditions: two days after treatment, 25° C.; 2880 min. How it is done:
Activity to cirrus red mite (Panonychus citri McGregor).
Testing method: The test was performed by Rothamstead method. A test composition was sprayed by means of a spray gun over grapefruit leaves infested with citrus red mites. After air-drying the grapefruit was left standing in a constant temperature cabinet at 25° C. Two days after the treatment, the number of survived mites was counted to calculate the mortality.

For data set [5], the system named is larvae of green rice leafhopper (Nephotettix cincticeps Uhler). Put plainly: Test Example 5: activity against larvae of green rice leafhopper. As to conditions: 168 h, 400 ppm, second-instar larvae, 25° C., seven days after treatment, read-out: Mortality. Put shortly:
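Rice seedlings at 1.5 leaf age dipped 30 seconds in 400 ppm test composition, air-dried, then infested with five second-instar larvae. Kept at 25° C; mortality scored seven days after treatment, three replicates.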

In the case of `CC(C)N=C1SCN(C(C)C)C(=O)N1C` [Compound 18, 2-Isopropylimino-3-methyl-5-isopropyl-tetrahydro-1,3,5-thiadiazin-4-one], the mortality at 400 ppm in data set [1], in data set [2] and in data set [5] was 100% throughout. This compound also showed a mortality at 1000 ppm in data set [3] of 80%. For the same compound, in data set [4], the Mortality is on record as 100%.
As for `CCN=C1SCN(C(C)C)C(=O)N1CC` [Compound 23], the mortality at 400 ppm came to 100% in data set [1], 100% in data set [2] and 80% in data set [5]. Besides, the mortality at 1000 ppm in data set [3] amounted to 100%. This compound also displayed a Mortality in data set [4] of 80%.
Regarding `CCCCN1CSC(=NC(C)C)N(C)C1=O` [Compound 25], the mortality at 400 ppm in data set [1], in data set [2] and in data set [5] was 100% in each case. This compound displayed a mortality at 1000 ppm in data set [3] of 100%. In data set [4], this compound yielded a Mortality of 80%.
Turning to `CC(C)CN1CSC(=NC(C)C)N(C(C)C)C1=O` [Compound 27], the mortality at 400 ppm turned out to be 100% in data set [1], 100% in data set [2] and 80% in data set [5]. In data set [3], this compound gave a mortality at 1000 ppm of 80%. The compound also returned a Mortality in data set [4] of 100%.
On to `CCC(C)N1CSC(=NC(C)C)N(C)C1=O` (stereo not shown) [Compound 29], for which the results for the mortality at 400 ppm in data set [1], in data set [2] and in data set [5] were 100%, 100% and 80%, respectively. For the same compound, the mortality at 1000 ppm in data set [3] was determined as 100%. The compound further displayed a Mortality in data set [4] of 100%.
On to `CN=C1SCN(C(C)(C)C)C(=O)N1C` [Compound 31, 2-Methylimino-3-methyl-5-t-butyl-tetrahydro-1,3,5-thiadiazin-4-one], for which the mortality at 400 ppm in data set [1] came out at 80%; in data set [2], 100%; in data set [5], 50%. In data set [3], this compound displayed a mortality at 1000 ppm of 100%. In data set [4], this compound gave a Mortality of 100%.
Take `CCCN=C1SCN(C(C)(C)C)C(=O)N1C` [Compound 32]: the results for the mortality at 400 ppm in data set [1], in data set [2] and in data set [5] were 100%, 100% and 50%, respectively. Also, in data set [3], the mortality at 1000 ppm amounted to 100%. Further, the Mortality in data set [4] came out at 100%.
Turning to `CC(C)N=C1SCN(C(C)(C)C)C(=O)N1C` [Compound 33], the mortality at 400 ppm in data set [1], in data set [2] and in data set [5] was 100% each time. Moreover, the mortality at 1000 ppm in data set [3] amounted to 100%. The compound further gave a Mortality in data set [4] of 100%.
Consider `CCC(C)N=C1SCN(C(C)(C)C)C(=O)N1C` (stereo not shown) [Compound 35], for which the mortality at 400 ppm in data set [1] was 100%; in data set [2], 100%; in data set [5], 50%. For the same compound, in data set [3], the mortality at 1000 ppm came out at 100%. In data set [4], this compound came in with a Mortality of 100%.
In the case of `CN1C(=O)N(C(C)(C)C)CSC1=NC(C)(C)C` [Compound 37], the mortality at 400 ppm in data set [1] amounted to 100%; in data set [2], 100%; in data set [5], 50%. The mortality at 1000 ppm in data set [3] stood at 100%. The Mortality in data set [4] turned out to be 100%.
Turning to `CCN1C(=O)N(C(C)(C)C)CSC1=NC(C)(C)C` [Compound 42], the results for the mortality at 400 ppm in data set [1], in data set [2] and in data set [5] were 100%, 100% and 80%, respectively. This compound also returned a mortality at 1000 ppm in data set [3] of 100%. The Mortality in data set [4] is 100%.
On to `CC(C)N1C(=O)N(C(C)(C)C)CSC1=NC(C)(C)CC(C)(C)C` [Compound 48], for which the mortality at 400 ppm turned out to be 100% in data set [1], 100% in data set [2] and 80% in data set [5]. In data set [3], this compound displayed a mortality at 1000 ppm of 100%. The compound further showed a Mortality in data set [4] of 100%.
Regarding `CCCCCCN1CSC(=NC(C)C)N(C(C)C)C1=O` [Compound 51], the mortality at 400 ppm in data set [1] is 100%; in data set [2], 100%; in data set [5] it was 50%. For the same compound, the mortality at 1000 ppm in data set [3] amounted to 100%. Besides, in data set [4], the Mortality turned out to be 50%.
Regarding `CN1C(=O)N(C2CCCCC2)CSC1=NC(C)(C)C` [Compound 53], the mortality at 400 ppm in data set [1] was 80%; in data set [2] it was 80%; in data set [5], 50%. For the same compound, the mortality at 1000 ppm in data set [3] is 100%. For the same compound, the Mortality in data set [4] is 100%.
On to `CCCN=C1SCN(Cc2ccccc2)C(=O)N1CCC` [Compound 56], for which the values for the mortality at 400 ppm in data set [1], in data set [2] and in data set [5] were 80%, 80% and 50%, respectively. Also, the mortality at 1000 ppm in data set [3] amounted to 100%. This compound returned a Mortality in data set [4] of 100%.
As to `CC(C)N=C1SCN(C(C)(C)CC(C)(C)C)C(=O)N1C` [Compound 59], the mortality at 400 ppm in data set [1], in data set [2] and in data set [5] was 100% each time. Further, the mortality at 1000 ppm in data set [3] was determined as 100%. The compound further yielded a Mortality in data set [4] of 100%.
As for `CN1C(=O)N(C(C)(C)CC(C)(C)C)CSC1=NC(C)(C)C` [Compound 63, 2-t-Butylimino-3-methyl-5-(1,1,3,3-tetramethyl)-butyl-tetrahydro-1,3,5-thiadiazin-4-one], the mortality at 400 ppm amounted to 100% in data set [1], 100% in data set [2] and 80% in data set [5]. In data set [3], this compound showed a mortality at 1000 ppm of 80%. Also, the Mortality in data set [4] came out at 50%.
Take `CCCCCCCCN1CSC(=NC(C)C)N(C)C1=O` [Compound 65]: the mortality at 400 ppm turned out to be 100% in data set [1], 100% in data set [2] and 50% in data set [5]. This compound gave a mortality at 1000 ppm in data set [3] of 100%. The compound further yielded a Mortality in data set [4] of 100%.
`CN=C1SCN(C(C)C)C(=O)N1c1ccccc1` [Compound 66, 2-Methylimino-3-phenyl-5-isopropyltetrahydro-1,3,5-thiadiazin-4-one]: the results for the mortality at 400 ppm in data set [1], in data set [2] and in data set [5] were 100%, 100% and 80%, respectively. In data set [3], the mortality at 1000 ppm came out at 100%. For the same compound, the Mortality in data set [4] worked out at 50%.
As for `CN=C1SCN(C(C)C)C(=O)N1c1ccc(Cl)cc1C` [Compound 68], the mortality at 400 ppm in data set [1] worked out at 100%; in data set [2] it was 100%; in data set [5], 50%. This compound displayed a mortality at 1000 ppm in data set [3] of 100%. The compound also displayed a Mortality in data set [4] of 50%.
As for `CN=C1SCN(C(C)(C)C)C(=O)N1c1ccccc1` [Compound 69], the mortality at 400 ppm in data set [1], in data set [2] and in data set [5] was 100% throughout. This compound displayed a mortality at 1000 ppm in data set [3] of 100%. Further, in data set [4], the Mortality was 80%.
Regarding `CN=C1SCN(C(C)(C)C)C(=O)N1c1ccc(F)cc1` [Compound 71], the mortality at 400 ppm amounted to 80% in data set [1], 80% in data set [2] and 50% in data set [5]. Also, the mortality at 1000 ppm in data set [3] worked out at 100%. Further, in data set [4], the Mortality was found to be 50%.
In the case of `Cc1ccc(N=C2SCN(C(C)(C)C)C(=O)N2C)cc1` [Compound 72, 2-p-Tolylimino-3-methyl-5-t-butyl-tetrahydro-1,3,5-thiadiazin-4-one], the figures for the mortality at 400 ppm in data set [1], in data set [2] and in data set [5] were 80%, 100% and 80%, respectively. Moreover, in data set [3], the mortality at 1000 ppm was 100%. Moreover, the Mortality in data set [4] came out at 80%.
